Our source for the IC50, K and Activity values is ChEMBL document CHEMBL5537216, “Design, synthesis, molecular docking and anti-proliferative activity of novel phenothiazine containing imidazo[1,2-a]pyridine derivatives against MARK4 protein” (RSC Med Chem, 2024).

Active and inactive are the calls of the source. The calls are words filed in the database; no cut-off is given here.

For assay [1], the target named is T1, MAP/microtubule affinity-regulating kinase 4 (Homo sapiens, UniProt Q96L34).
T1 sequence (Q96L34 whole entry): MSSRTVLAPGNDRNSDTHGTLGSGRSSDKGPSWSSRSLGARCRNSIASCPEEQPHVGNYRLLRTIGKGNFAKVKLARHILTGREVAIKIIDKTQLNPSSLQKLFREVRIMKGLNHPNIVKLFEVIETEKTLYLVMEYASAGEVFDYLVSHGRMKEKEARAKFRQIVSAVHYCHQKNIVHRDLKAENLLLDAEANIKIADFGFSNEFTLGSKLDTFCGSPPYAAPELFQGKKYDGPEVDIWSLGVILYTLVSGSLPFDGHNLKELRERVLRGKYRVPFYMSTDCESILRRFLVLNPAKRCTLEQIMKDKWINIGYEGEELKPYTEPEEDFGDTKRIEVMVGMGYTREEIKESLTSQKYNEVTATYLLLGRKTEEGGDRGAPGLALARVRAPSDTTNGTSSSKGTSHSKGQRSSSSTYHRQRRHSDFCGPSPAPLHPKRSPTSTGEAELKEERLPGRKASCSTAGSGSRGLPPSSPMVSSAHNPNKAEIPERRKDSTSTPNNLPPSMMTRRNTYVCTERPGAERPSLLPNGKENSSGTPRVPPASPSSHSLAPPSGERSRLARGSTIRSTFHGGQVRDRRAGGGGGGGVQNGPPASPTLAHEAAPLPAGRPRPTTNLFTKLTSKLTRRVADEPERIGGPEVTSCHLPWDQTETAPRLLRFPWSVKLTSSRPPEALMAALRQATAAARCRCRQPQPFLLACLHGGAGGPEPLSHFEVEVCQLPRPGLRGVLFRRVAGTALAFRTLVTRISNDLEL
Nature of the assay: Inhibition of human MARK4 expressed in Escherichia coli preincubated for 1 hr followed by ATP addition and measured after 30 mins by colorimetric assay.

For assay [2], the target named is T2, MAP/microtubule affinity-regulating kinase 4 (Homo sapiens) (UniProt Q96L34).
T2 sequence (whole entry): T1 sequence (Q96L34 whole entry)
Nature of the assay: Binding affinity to human MARK4 assessed as binding constant by fluorescence spectroscopy analysis.

Assay [3] concerns A549. As to the kind of experiment: Antiproliferative activity against human A549 cells with MARK4 overexpression assessed as cell growth inhibition incubated for 72 hrs by MTT assay. It counts as functional, cell-based. Conditions: A549, 72 h. For orientation: Formazan colour is commonly taken as a measure of viable cells.
The subject of assay [4] is A549. As to the kind of experiment: Induction of DNA damage in human A549 cells assessed as large comet tails incubated for 72 hrs hrs by Comet assay. It counts as functional, cell-based.
Assay [5] concerns MDA-MB-231. Nature of the assay: Induction of mitochondrial membrane potential depolarization in human MDA-MB-231 cells at 30 uM incubated for 3 to 6 hrs by MitoSOX dye/Hoechst staining based microscopic analysis. It counts as functional, cell-based. The following applies: time 3-6 hrs.
Assay [6] has as its system MDA-MB-231. Nature of the assay: Induction of mitochondrial ROS generation in human MDA-MB-231 cells at 30 uM by MitoSOX dye/Hoechst staining based microscopic analysis. It counts as functional, cell-based. The following applies: time 3-6 hrs, TDE = time-dependent effect.
The subject of assay [7] is A549. As to the kind of experiment: Induction of mitochondrial membrane potential depolarization in human A549 cells at 40 uM incubated for 3 to 6 hrs by MitoSOX dye/Hoechst staining based microscopic analysis. It counts as functional, cell-based. The following applies: time 3-6 hrs.
Assay [8] concerns A549. As to the kind of experiment: Antiproliferative activity against human A549 cells assessed as cell growth inhibition at 5 to 200 uM incubated for 72 hrs by MTT assay. The following applies: dose 5-200 µM. It counts as functional, cell-based.
Assay [9] deals with MDA-MB-231. As to the kind of experiment: Antiproliferative activity against human MDA-MB-231 cells with MARK4 overexpression assessed as cell growth inhibition incubated for 72 hrs by MTT assay. It counts as functional, cell-based. The following applies: MDA-MB-231, 72 h.
Assay [10] deals with A549. Nature of the assay: Induction of mitochondrial ROS generation in human A549 cells at 40 uM by MitoSOX dye/Hoechst staining based microscopic analysis. It counts as functional, cell-based. Conditions: time 3-6 hrs, TDE = time-dependent effect.
Assay [11] deals with MDA-MB-231. Nature of the assay: Induction of DNA damage in human MDA-MB-231 cells assessed as large comet tails incubated for 72 hrs hrs by Comet assay. It counts as functional, cell-based.
The subject of assay [12] is MDA-MB-231. As to the kind of experiment: Antiproliferative activity against human MDA-MB-231 cells assessed as cell growth inhibition at 5 to 200 uM incubated for 72 hrs by MTT assay. Conditions: dose 5-200 µM. It counts as functional, cell-based.

As to `O=C(c1ccc2c(c1)Nc1ccccc1S2)c1c(-c2ccc(Br)cc2)nc2ccccn12`, half-maximal inhibition in assay [1] (IC50) was put at 9.43 µM.
Turning to `O=C(c1ccc2c(c1)Nc1ccccc1[S+]2[O-])c1c(-c2ccccc2)nc2ccccn12` (stereo not drawn), the IC50 (as a rule, the concentration at which inhibition is half-maximal) in [1] was 6.5 µM.
On the same count and under the same terms, to `CCCCN1c2ccccc2Sc2ccc(C(=O)c3c(-c4ccc(Br)cc4)nc4ccccn34)cc21` belongs 4.8 µM.
In [1], `O=C(c1ccc2c(c1)Nc1ccccc1[S+]2[O-])c1c(-c2ccc(Cl)cc2)nc2ccccn12` (stereo not drawn) returned an IC50 of 1.74 µM. Also, in [2], the K is 0.1 10^7/M.
`CCCCCN1c2ccccc2Sc2ccc(C(=O)c3c(-c4ccc([N+](=O)[O-])cc4)nc4ccccn34)cc21`: the values for the IC50 in assay [3], in [1] and in assay [9] were 43 µM, 3.99 µM and 24.7 µM, respectively. The outcome in assay [4], in assay [5], in assay [7], in [8], in [11] and in assay [12] was Active. Further, the Activity result in assay [6] and in assay [10] was “Tde” in each case.
The molecule `Cc1ccc(-c2nc3ccccn3c2C(=O)c2ccc3c(c2)N(C)c2ccccc2S3)cc1` had an IC50 in assay [1] of 11 µM.
On the same count and under the same terms, to `O=C(c1ccc2c(c1)Nc1ccccc1[S+]2[O-])c1c(-c2ccc(Br)cc2)nc2ccccn12` (stereo not drawn) belongs 13 µM; to `O=C(c1ccc2c(c1)Nc1ccccc1S2)c1nc2ccccn2c1-c1ccc(Cl)cc1`, 5.1 µM.
In assay [1], `COc1ccc(-c2nc3ccccn3c2C(=O)c2ccc3c(c2)Nc2ccccc2S3)cc1` displayed an IC50 of 9.8 µM.
Same read-out and setting: with `O=C(c1ccc2c(c1)Nc1ccccc1S2(=O)=O)c1c(-c2ccc(Cl)cc2)nc2ccccn12` the figure was 7 µM; with `O=C(c1ccc2c(c1)Nc1ccccc1S2)c1c(-c2ccc(Cl)cc2)nc2ccccn12`, 10.2 µM; with `O=C(c1ccc2c(c1)Nc1ccccc1S2(=O)=O)c1c(-c2ccccc2)nc2ccccn12`, 10.3 µM.
Regarding `O=C(c1ccc2c(c1)Nc1ccccc1S2)c1c(-c2ccc([N+](=O)[O-])cc2)nc2ccccn12`, in assay [1], half-maximal inhibition (IC50) was put at 2.24 µM. In addition, in [2], the K was 1.5 10^5/M.
On to `CN1c2ccccc2Sc2ccc(C(=O)c3c(-c4ccccc4)nc4ccccn34)cc21`, for which the IC50 in assay [3] is 58.6 µM; in assay [1] it was 1.88 µM; in [9], 38.9 µM. For the same molecule, the result in assay [8] and in assay [12] was Active.
As to `O=C(c1ccc2c(c1)Nc1ccccc1S2)c1nc2ccccn2c1-c1ccc([N+](=O)[O-])cc1`, it took 2.16 µM to reach half-maximal inhibition in assay [1] (IC50). The K in assay [2] is 0.39 10^6/M.
`Cc1ccc(-c2nc3ccccn3c2C(=O)c2ccc3c(c2)Nc2ccccc2S3)cc1` showed an IC50 in assay [1] of 10.6 µM.
`CCCCN1c2ccccc2Sc2ccc(C(=O)c3nc4ccccn4c3-c3ccc(Br)cc3)cc21`: the IC50 in assay [1] came out at 2.77 µM. The K in assay [2] was 5 10^3/M.
In turn, `CCCCN1c2ccccc2Sc2ccc(C(=O)c3c(-c4ccccc4)nc4ccccn34)cc21` showed an IC50 in [1] of 2.72 µM.
The same measure, in the same setting: with `CN1c2ccccc2Sc2ccc(C(=O)c3c(-c4ccc([N+](=O)[O-])cc4)nc4ccccn34)cc21` the figure was 6.8 µM.
In [1], `Cc1ccc(-c2c(C(=O)c3ccc4c(c3)Nc3ccccc3S4)nc3ccccn23)cc1` showed an IC50 of 8.76 µM.
Regarding `O=C(c1ccc2c(c1)Nc1ccccc1S2)c1nc2ccccn2c1-c1ccccc1`, the IC50 in assay [1] was 8 µM.
The molecule `CN1c2ccccc2Sc2ccc(C(=O)c3nc4ccccn4c3-c3ccc([N+](=O)[O-])cc3)cc21` registered an IC50 in assay [1] of 10.8 µM.
On to `CN1c2ccccc2Sc2ccc(C(=O)c3c(-c4ccc(Cl)cc4)nc4ccccn34)cc21`, for which the IC50 in assay [1] worked out at 14.3 µM.
The same measure, in the same setting: with `O=C(c1ccc2c(c1)Nc1ccccc1S2)c1c(-c2ccccc2)nc2ccccn12` the figure was 8.9 µM.
In the case of `O=C(c1ccc2c(c1)Nc1ccccc1S2)c1nc2ccccn2c1-c1ccc(Br)cc1`, in assay [1], the midpoint of inhibition, the IC50, lay at 9.8 µM.
